# In ChEMBL document CHEMBL4138123, “Design, synthesis and biological evaluation of novel pyrazolochalcones as potential modulators of PI3K/Akt/mTOR pathway and inducers of apoptosis in breast cancer cells” (Eur J Med Chem, 2017):
# Assays:
# Assay type in all cases: functional
# U-251 = experiment: Cytotoxicity against human U251 cells assessed as cell growth at 100 uM after 48 hrs by sulforhodamine B assay relative to control; details: U-251, 48 h, read-out: Activity
# SK-OV-3 = experiment: Cytotoxicity against human SKOV3 cells assessed as cell growth at 1 uM after 48 hrs by sulforhodamine B assay relative to control; details: SK-OV-3, 48 h, read-out: Activity
# UACC-62 = experiment: Cytotoxicity against human UACC62 cells assessed as growth inhibition after 48 hrs by sulforhodamine B assay; details: UACC-62, 48 h
# SK-MEL-5 = experiment: Cytotoxicity against human SK-MEL-5 cells assessed as cell growth at 0.01 uM after 48 hrs by sulforhodamine B assay relative to control; details: SK-MEL-5, 48 h, read-out: Activity
# TK-10 [1] = experiment: Cytotoxicity against human TK10 cells assessed as cell growth at 0.1 uM after 48 hrs by sulforhodamine B assay relative to control; details: TK-10, 48 h, read-out: Activity
# A498 = experiment: Cytotoxicity against human A498 cells assessed as cell growth at 0.01 uM after 48 hrs by sulforhodamine B assay relative to control; details: A498, 48 h, read-out: Activity
# SF-268 = experiment: Cytotoxicity against human SF268 cells assessed as cell growth at 100 uM after 48 hrs by sulforhodamine B assay relative to control; details: SF-268, 48 h, read-out: Activity
# UACC-257 [2] = experiment: Cytotoxicity against human UACC257 cells assessed as cell growth at 10 uM after 48 hrs by sulforhodamine B assay relative to control; details: UACC-257, 48 h, read-out: Activity
# SR = experiment: Cytotoxicity against human SR cells assessed as cell growth at 100 uM after 48 hrs by sulforhodamine B assay relative to control; details: read-out: Activity
# KM12 [3] = experiment: Cytotoxicity against human KM12 cells assessed as cell growth at 100 uM after 48 hrs by sulforhodamine B assay relative to control; details: KM12, 48 h, read-out: Activity
# TK-10 [4] = experiment: Cytotoxicity against human TK10 cells assessed as cell growth at 100 uM after 48 hrs by sulforhodamine B assay relative to control; details: TK-10, 48 h, read-out: Activity
# KM12 [5] = experiment: Cytotoxicity against human KM12 cells assessed as cell growth at 10 uM after 48 hrs by sulforhodamine B assay relative to control; details: KM12, 48 h, read-out: Activity
# TK-10 [6] = experiment: Cytotoxicity against human TK10 cells assessed as cell growth at 1 uM after 48 hrs by sulforhodamine B assay relative to control; details: TK-10, 48 h, read-out: Activity
# HCT-116 = experiment: Cytotoxicity against human HCT116 cells assessed as cell growth at 1 uM after 48 hrs by sulforhodamine B assay relative to control; details: HCT-116, 48 h, read-out: Activity
# NCI-H23 = experiment: Cytotoxicity against human NCI-H23 cells assessed as cell growth at 10 uM after 48 hrs by sulforhodamine B assay relative to control; details: NCI-H23, 48 h, read-out: Activity
# NCI-H460 [7] = experiment: Cytotoxicity against human NCI-H460 cells assessed as cell growth at 0.1 uM after 48 hrs by sulforhodamine B assay relative to control; details: NCI-H460, 48 h, read-out: Activity
# MCF7 [8] = experiment: Cytotoxicity against human MCF7 cells assessed as cell growth at 1 uM after 48 hrs by sulforhodamine B assay relative to control; details: MCF7, 48 h, read-out: Activity
# MDA-MB-231 = experiment: Cytotoxicity against human MDA-MB-231 cells assessed as cell growth at 100 uM after 48 hrs by sulforhodamine B assay relative to control; details: MDA-MB-231, 48 h, read-out: Activity
# OVCAR-3 = experiment: Cytotoxicity against human OVCAR3 cells assessed as cell growth at 0.01 uM after 48 hrs by sulforhodamine B assay relative to control; details: OVCAR-3, 48 h, read-out: Activity
# HCC 2998 = experiment: Cytotoxicity against human HCC2998 cells assessed as cell growth at 0.1 uM after 48 hrs by sulforhodamine B assay relative to control; details: HCC 2998, 48 h, read-out: Activity
# Hs-578T = experiment: Cytotoxicity against human Hs 578T cells assessed as cell growth at 10 uM after 48 hrs by sulforhodamine B assay relative to control; details: read-out: Activity
# DU-145 = experiment: Cytotoxicity against human DU145 cells assessed as growth inhibition after 48 hrs by sulforhodamine B assay; details: DU-145, 48 h; for CC50: read-out: LC50 (the source's name)
# MOLT-4 = experiment: Cytotoxicity against human MOLT4 cells assessed as cell growth at 1 uM after 48 hrs by sulforhodamine B assay relative to control; details: MOLT-4, 48 h, read-out: Activity
# COLO 205 = experiment: Cytotoxicity against human COLO205 cells assessed as cell growth at 10 uM after 48 hrs by sulforhodamine B assay relative to control; details: COLO 205, 48 h, read-out: Activity
# NCI-H460 [9] = experiment: Cytotoxicity against human NCI-H460 cells assessed as growth inhibition after 48 hrs by sulforhodamine B assay; details: NCI-H460, 48 h
# MCF7 [10] = experiment: Cytotoxicity against human MCF7 cells assessed as cell growth at 100 uM after 48 hrs by sulforhodamine B assay relative to control; details: MCF7, 48 h, read-out: Activity
# PC-3 = experiment: Cytotoxicity against human PC3 cells assessed as cell growth at 1 uM after 48 hrs by sulforhodamine B assay relative to control; details: PC-3, 48 h, read-out: Activity
# M14 = experiment: Cytotoxicity against human M14 cells assessed as cell growth at 0.1 uM after 48 hrs by sulforhodamine B assay relative to control; details: M14, 48 h, read-out: Activity
# UO-31 = experiment: Cytotoxicity against human UO31 cells assessed as cell growth at 1 uM after 48 hrs by sulforhodamine B assay relative to control; details: UO-31, 48 h, read-out: Activity
# K562 = experiment: Cytotoxicity against human K562 cells assessed as cell growth at 0.01 uM after 48 hrs by sulforhodamine B assay relative to control; details: K562, 48 h, read-out: Activity
# SF-539 = experiment: Cytotoxicity against human SF539 cells assessed as growth inhibition after 48 hrs by sulforhodamine B assay; details: SF-539, 48 h
# UACC-257 [11] = experiment: Cytotoxicity against human UACC257 cells assessed as cell growth at 0.01 uM after 48 hrs by sulforhodamine B assay relative to control; details: UACC-257, 48 h, read-out: Activity
# NCI-H322M = experiment: Cytotoxicity against human NCI-H322M cells assessed as cell growth at 100 uM after 48 hrs by sulforhodamine B assay relative to control; details: read-out: Activity
# HT-29 = experiment: Cytotoxicity against human HT-29 cells assessed as growth inhibition after 48 hrs by sulforhodamine B assay; details: HT-29, 48 h
# OVCAR-5 = experiment: Cytotoxicity against human OVCAR5 cells assessed as cell growth at 10 uM after 48 hrs by sulforhodamine B assay relative to control; details: OVCAR-5, 48 h, read-out: Activity
compound,measurement,setting,value
COc1cc2c(cc1OC)C(=O)/C(=C/c1cc(-c3ccc4c(c3)OCO4)n[nH]1)C2,growth at 100 µM,U-251,-94%
same,growth at 1 µM,SK-OV-3,109%
same,GI50,UACC-62,1.63 µM
same,LC50,UACC-62,5.66 µM
same,TGI,UACC-62,3.04 µM
same,growth at 0.01 µM,SK-MEL-5,95%
same,growth at 0.1 µM,TK-10 [1],88%
same,growth at 0.01 µM,A498,80%
same,growth at 100 µM,SF-268,-73%
same,growth at 10 µM,UACC-257 [2],-96%
same,growth at 100 µM,SR,-22%
same,growth at 100 µM,KM12 [3],-80%
same,growth at 100 µM,TK-10 [4],-95%
same,growth at 10 µM,KM12 [5],-87%
same,growth at 1 µM,TK-10 [6],106%
same,growth at 1 µM,HCT-116,51%
same,growth at 10 µM,NCI-H23,-63%
same,growth at 0.1 µM,NCI-H460 [7],101%
same,growth at 1 µM,MCF7 [8],15%
same,growth at 100 µM,MDA-MB-231,-96%
same,growth at 0.01 µM,OVCAR-3,101%
same,growth at 0.1 µM,HCC 2998,97%
same,growth at 10 µM,Hs-578T,-9%
same,GI50,DU-145,1.45 µM
same,TGI,DU-145,2.86 µM
same,CC50,DU-145,5.64 µM
same,growth at 1 µM,MOLT-4,97%
same,growth at 10 µM,COLO 205,-97%
same,GI50,NCI-H460 [9],1.68 µM
same,LC50,NCI-H460 [9],8.57 µM
same,TGI,NCI-H460 [9],3.79 µM
same,growth at 100 µM,MCF7 [10],-72%
same,growth at 1 µM,PC-3,65%
same,growth at 0.1 µM,M14,96%
same,growth at 1 µM,UO-31,68%
same,growth at 0.01 µM,K562,97%
same,GI50,SF-539,1.27 µM
same,LC50 (concentration killing 50% of cells),SF-539,5.22 µM
same,TGI,SF-539,2.57 µM
same,growth at 0.01 µM,UACC-257 [11],93%
same,growth at 100 µM,NCI-H322M,-91%
same,GI50,HT-29,1.45 µM
same,LC50,HT-29,6.63 µM
same,TGI,HT-29,3.09 µM
same,growth at 10 µM,OVCAR-5,-92%
COc1cc(-c2cc(/C=C/C(=O)c3ccc(N)cc3)[nH]n2)cc(OC)c1OC,growth at 100 µM,U-251,-98%
same,growth at 1 µM,SK-OV-3,104%
same,GI50,UACC-62,1.7 µM
same,LC50,UACC-62,7.51 µM
same,TGI,UACC-62,3.58 µM
same,growth at 0.01 µM,SK-MEL-5,95%
same,growth at 0.1 µM,TK-10 [1],100%
same,growth at 0.01 µM,A498,91%
same,growth at 100 µM,SF-268,-80%
same,growth at 10 µM,UACC-257 [2],-59%
same,growth at 100 µM,SR,-13%
same,growth at 100 µM,KM12 [3],-79%
same,growth at 100 µM,TK-10 [4],-81%
same,growth at 10 µM,KM12 [5],-67%
same,growth at 1 µM,TK-10 [6],102%
same,growth at 1 µM,HCT-116,56%
same,growth at 10 µM,NCI-H23,-19%
same,growth at 0.1 µM,NCI-H460 [7],102%
same,growth at 1 µM,MCF7 [8],66%
same,growth at 100 µM,MDA-MB-231,-77%
same,growth at 0.01 µM,OVCAR-3,101%
same,growth at 0.1 µM,HCC 2998,108%
same,growth at 10 µM,Hs-578T,29%
same,GI50,DU-145,1.65 µM
same,TGI,DU-145,4.05 µM
same,CC50,DU-145,9.95 µM
same,growth at 1 µM,MOLT-4,72%
same,growth at 10 µM,COLO 205,-84%
same,GI50,NCI-H460 [9],1.8 µM
same,LC50,NCI-H460 [9],44.8 µM
same,TGI,NCI-H460 [9],5.1 µM
same,growth at 100 µM,MCF7 [10],-57%
same,growth at 1 µM,PC-3,76%
same,growth at 0.1 µM,M14,101%
same,growth at 1 µM,UO-31,71%
same,growth at 0.01 µM,K562,100%
same,GI50,SF-539,1.3 µM
same,LC50 (concentration killing 50% of cells),SF-539,5.42 µM
same,TGI,SF-539,2.66 µM
same,growth at 0.01 µM,UACC-257 [11],94%
same,growth at 100 µM,NCI-H322M,-89%
same,GI50,HT-29,1.85 µM
same,LC50,HT-29,> 100 µM
same,TGI,HT-29,4.82 µM
same,growth at 10 µM,OVCAR-5,-66%
